Measured values reported in publication PMC8533176, “1,5-Benzodiazepin-2(3H)-ones: In Vitro Evaluation as Antiparkinsonian Agents” (Antioxidants, 2021).

Key:
[1] = Ferric reducing antioxidant power (FRAP) assay; type: biochemical; set-up: FRAP Assay Trolox Equivalents: unit not given here
Description: FRAP reagent was prepared by mixing 10 mL of 300 mM acetate buffer with 1 mL of 10 mM 2,4,6-tripyridyl-S-triazine (TPTZ) in HCl 40 mM and 1mL of FeCl3·6H2O 20 mM. […] Trolox was used as assay control.

[2] = test system: Caspase-3 activity in SH-SY5Y cells; assay: Caspase-3 activity; type: cell-based, human; conditions: H2O2 500 µM 4 h; compound 24 h before
Description: Caspase-3 activity was measured using the Abcam fluorimetric kit (ab39383) according to the manufacturer’s instructions. Cells are washed with ice-cold PBS and lysed with lysis buffer. After compound and stressor treatments, SH-SY5Y cells were scraped off from p6 plates and collected in a 1.5 mL Eppendorf vial. The cell suspension was then centrifuged at 9000× g for 10 min at 4 °C. The supernatant was collected and stored at −80 °C for 24 h. Caspase 3 activity was measured as the ability of the cell extract to cleave the […] fluorochrome. The sample’s protein concentration was determined by the Bradford method. The reaction assay was performed by the addition of 50 μL of the cell lysate into the wells of a black 96-well culture plate followed by the addition of 50 μL of 2× reaction buffer containing DTT (10 mM) and caspase-3 substrate DEVD-AFC (final concentration 50 μM). Reagents were mixed by shaking the plate for 2 min at 300 rpm and then incubated at 37 °C for 2 h. Caspase-3 activity was measured as fluorescence intensity in a Varioskan microplate reader at λex = 400 nm and λem = 505 nm wavelengths. Relative fluorescence units (RFU)/mg of protein were calculated, and the fold increase in Caspase-3 activity was compared with that of the control.

[3] = Chemical reactivity with H2O2; type: physicochemical; conditions: H2O2 500 µM, 37 °C, 4 h, DMEM:F12 without cells
Description: In our case, before running the protection experiments under oxidative stress conditions, we carried out experiments to assess the potential reactivity of compounds 9, 11, 13, and 18 at four different concentrations (5, 10, 20, and 40 µM) with H2O2 500 µM at 37 °C for 4 h in DMEM:F12 (without phenol red, FBS, and cells). Curcumin was used as a control compound.

SH-SY5Y cells [4] = assay: GSH/GSSG ratio; type: cell-based, human; conditions: H2O2 500 µM 6 h; 10 and 20 µM 24 h before
Description: GSH and GSSG levels were determined by the method of Vikas et al. with slight modifications. In summary, 2 × 10^5 SH-SY5Ycells were seeded in 6-well culture plates. After 24 h, cells were treated with the test compound and incubated for another 24 h. […] Then, cells were washed twice with cold 50 mM PBS buffer, detached, lysed with lysis buffer, and split into two samples: one for GSH analysis and the other for GSSG determination. For GSH analysis, 20 µL of ortho-phthaldehyde (OPT) 20 mg/mL and 280 µL of monobasic potassium phosphate buffer were added per 100 µL of sample replicate. Samples were vortexed and centrifuged at 4 °C at 13,000× g for 10 min. Afterward, 100 µL of supernatant per well was transferred to a black 96-well culture plate with a clear bottom. Fluorescence was measured in a Varioskan plate reader (λex = 360 nm; λem = 420 nm). Sample GSH concentrations were calculated from a standard calibration curve made by serial dilutions of GSH from 0 to 50 µM. […] Fluorescence was measured in a Varioskan plate reader (λex = 360 nm; λem = 420 nm). Sample GSSG concentrations were calculated from a standard calibration curve made by serial dilutions of GSSG from 0 to 200 µM.

SH-SY5Y cells [5] = assay: Neuroprotection against H2O2-induced oxidative stress, MTT; conditions: H2O2 250 µM 24 h; compounds 5-50 µM 24 h before; Figure 8
SH-SY5Y cells [6] = assay: LDH release under H2O2; type: cell-based, human; conditions: H2O2 250 µM 24 h; compounds 24 h before; Figure 9
SH-SY5Y cells [7] = assay: Apoptosis and necrosis by flow cytometry (Annexin V-PE/7-AAD); conditions: 10 and 20 µM 24 h, then H2O2 1 mM 4 h
[8] = as above; conditions: human, SH-SY5Y cells
SH-SY5Y cells [9] = assay: Neuroprotection in the MPP+ neurotoxicity-induced model, MTT; type: cell-based, human; conditions: MPP+ 700 µM 48 h; compounds 24 h before
diffSH-SY5Y cells = assay: Neuroprotection in differentiated SH-SY5Y cells, MTT; type: cell-based, human; conditions: H2O2 500 µM 24 h; 0, 2, 5, 10, 20, and 40 µM 24 h before

With `O=C1CC(c2ccccc2)=Nc2ccccc2N1` [Compound 18, 4-Phenyl-1H-1,5-benzodiazepin-2(3H)-one] the “FRAP Assay Trolox Equivalents” value [1] was 0.89, the “FRAP Assay Antioxidant Capacity (%) at 100 uM” value ([1]; compound at 100 uM) was 45.7% and the “FRAP Assay Antioxidant Capacity (%) at 200 uM” value ([1]; compound at 200 uM) was 65.1%. For the same molecule, the Caspase-3 activity reduction [2] was “reduced the levels of activated caspase 3”, the “Reaction with H2O2” value [3] was “did not show any significant reaction” and the GSH/GSSG ratio (SH-SY5Y cells [4]) was “improved the GSH/GSSG ratios of cells under oxidative stress, although without statistical significance”. For the same molecule, the “Neuroprotection effect, cell viability (MTT)” value (SH-SY5Y cells [5]) was “significantly improved”, the LDH leakage (SH-SY5Y cells [6]) was “significant reduction at all the concentrations tested” and the “Effect on apoptotic cell populations” value (SH-SY5Y cells [7]) was “reduced the number of late apoptotic cells”. For the same molecule, the viability at 24 h, 10 µM [8] was 26.6%, the viability at 24 h, 20 µM [8] was 28.1% and the “Neuroprotection, cell viability (MTT), MPP+ model” value (SH-SY5Y cells [9]) was “small significant neuroprotection at 1 and 2 µM”. For the same molecule, the “Neuroprotection, diffSH-SY5Y cell viability (MTT)” value (diffSH-SY5Y cells) was “dose-dependent neuroprotectant activity”.
